{"source": "patent US9388181B2", "about": "“Substituted 1,2,3,4-tetrahydropyrido[3,4-E] pyrrolo[1,2-A]pyrimidines as kinase” (Allergan, Inc., priority 2014, dated 2016)", "key": {"VEGFR2": {"biological_target": "VEGFR2 (Homo sapiens (Human), UniProt P35968)", "sequence (P35968 20-1356)": "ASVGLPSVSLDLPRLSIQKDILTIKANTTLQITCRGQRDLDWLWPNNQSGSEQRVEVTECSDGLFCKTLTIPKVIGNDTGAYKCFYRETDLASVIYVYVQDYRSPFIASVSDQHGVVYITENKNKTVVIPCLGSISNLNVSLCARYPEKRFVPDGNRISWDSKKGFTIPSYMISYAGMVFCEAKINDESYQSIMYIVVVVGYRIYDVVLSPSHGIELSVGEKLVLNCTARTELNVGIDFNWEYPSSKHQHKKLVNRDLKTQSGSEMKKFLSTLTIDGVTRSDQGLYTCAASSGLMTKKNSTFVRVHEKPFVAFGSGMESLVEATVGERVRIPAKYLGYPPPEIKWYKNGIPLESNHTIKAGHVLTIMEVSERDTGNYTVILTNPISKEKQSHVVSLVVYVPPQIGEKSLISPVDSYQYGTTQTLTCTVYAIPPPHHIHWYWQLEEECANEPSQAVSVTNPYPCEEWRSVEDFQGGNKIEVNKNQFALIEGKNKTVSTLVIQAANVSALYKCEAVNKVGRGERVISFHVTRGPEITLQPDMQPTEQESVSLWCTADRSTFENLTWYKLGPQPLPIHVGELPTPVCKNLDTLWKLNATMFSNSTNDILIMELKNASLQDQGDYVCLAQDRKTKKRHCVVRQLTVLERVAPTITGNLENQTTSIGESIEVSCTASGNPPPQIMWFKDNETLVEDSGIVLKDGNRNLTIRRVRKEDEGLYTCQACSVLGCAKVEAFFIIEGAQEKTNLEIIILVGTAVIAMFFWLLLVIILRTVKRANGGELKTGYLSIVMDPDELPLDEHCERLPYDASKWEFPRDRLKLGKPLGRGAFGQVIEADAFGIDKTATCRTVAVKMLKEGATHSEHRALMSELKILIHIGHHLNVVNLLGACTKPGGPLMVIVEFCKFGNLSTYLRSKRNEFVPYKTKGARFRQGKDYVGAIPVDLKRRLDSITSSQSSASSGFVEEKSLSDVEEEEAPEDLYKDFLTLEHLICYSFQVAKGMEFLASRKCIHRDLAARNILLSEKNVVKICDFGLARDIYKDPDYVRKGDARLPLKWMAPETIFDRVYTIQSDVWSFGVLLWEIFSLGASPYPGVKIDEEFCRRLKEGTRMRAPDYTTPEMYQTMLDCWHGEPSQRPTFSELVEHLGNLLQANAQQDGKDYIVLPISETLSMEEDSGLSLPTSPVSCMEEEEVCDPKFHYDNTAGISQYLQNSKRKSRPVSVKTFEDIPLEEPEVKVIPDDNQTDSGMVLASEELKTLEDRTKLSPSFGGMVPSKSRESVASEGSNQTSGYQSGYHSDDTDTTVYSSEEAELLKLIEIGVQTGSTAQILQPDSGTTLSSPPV", "experiment": "VEGFR2 Cellular Assay (FLIPR, VEGF induced intracellular calcium in HUVEC)", "type": "cell-based", "settings": "VEGF165 stimulation (10 ng/mL)", "procedure": "VEGFR2 Cellular Assay Automated FLIPR (Fluorometric Imaging Plate Reader) technology was used to screen for inhibitors of VEGF induced increases in intracellular calcium levels in fluorescent dye loaded endothelial cells. HUVEC (human umbilical vein endothelial cells) (Clonetics) were seeded in 384-well fibronectin coated black-walled plates overnight @ 37° C./5% CO2. Cells were loaded with calcium indicator Fluo-4 for 45 minutes at 37° C. Cells were washed 2 times (Elx405, Biotek Instruments) to remove extracellular dye. For screening, cells were pre-incubated with test agents for 30 minutes, at a single concentration (10 uM) or at concentrations ranging from 0.0001 to 10.0 uM followed by VEGF165 stimulation (10 ng/mL). Changes in fluorescence at 516 nm were measured simultaneously in all 384 wells using a cooled CCD camera. Data were generated by determining max-min fluorescence levels for unstimulated, stimulated, and drug treated samples. IC50 values for test compounds were calculated from inhibition of VEGF stimulated responses in the absence of inhibitor."}, "PDGFRβ [1]": {"biological_target": "T1, PDGFRβ (Homo sapiens (Human), UniProt P09619)", "experiment": "PDGFRβ Cellular Assay (FLIPR, PDGF-induced intracellular calcium in NHDF-Ad)", "type": "cell-based", "settings": "PDGF-BB stimulation (30 ng/mL)", "procedure": "NHDF-Ad (Normal Human Dermal Fibroblasts, Adult; Lonza) were seeded in 384-well fibronectin coated black-walled plates overnight @ 37° C./5% CO2. Cells were loaded with calcium indicator Fluo-4 for 45 minutes at 37° C. Cells were washed 2 times (Elx405, Biotek Instruments) to remove extracellular dye. For screening, cells were pre-incubated with test agents for 30 minutes, at a single concentration (10 uM) or at concentrations ranging from 0.0001 to 10.0 uM followed by PDGF-BB stimulation (30 ng/mL). Changes in fluorescence at 516 nm were measured simultaneously in all 384 wells using a cooled CCD camera. Data were generated by determining max-min fluorescence levels for unstimulated, stimulated, and drug treated samples. IC50 values for test compounds were calculated from % inhibition of PDGF-BB stimulated responses in the absence of inhibitor."}, "PDGFRβ [2]": {"biological_target": "T1, PDGFRβ", "experiment": "PDGFRβ Kinase Assay (biochemical, ELISA)", "settings": "purified cytoplasmic domain PDGFR-b protein, 36 μM ATP", "procedure": "Biochemical PDGFRβ kinase assays were performed in 96 well microtiter plates that were coated overnight with 75 μg of poly-Glu-Tyr (4:1) in 10 mM Phosphate Buffered Saline (PBS), pH 7.4. The coated plates were washed with 2 mls per well PBS+0.05% Tween-20 (PBS-T), blocked by incubation with PBS containing 1% BSA, then washed with 2 mls per well PBS-T prior to starting the reaction. Reactions were carried out in 100 μL reaction volumes containing 36 μM ATP in kinase buffer (50 mM Hepes buffer pH 7.4, 20 mM MgCl2, 0.1 mM MnCl2 and 0.2 mM Na3VO4). Test compounds were reconstituted in 100% DMSO and added to the reaction to give a final DMSO concentration of 5%. Reactions were initiated by the addition 20 ul per well of kinase buffer containing 200-300 ng purified cytoplasmic domain PDGFR-b protein (Millipore). Following a 60 minute incubation at 30° C., the reactions were washed 2 mls per well PBS-T. 100 μl of a monoclonal anti-phosphotyrosine antibody-peroxidase conjugate diluted 1:10,000 in PBS-T was added to the wells for 30 minutes. Following a 2 mis per well wash with PBS-Tween-20, 100 μl of 0-Phenylenediamine Dihydrochloride in phosphate-citrate buffer, containing urea hydrogen peroxide, was added to the wells for 7-10 minutes as a colorimetric substrate for the peroxidase. The reaction was terminated by the addition of 100 μl of 2.5N H2SO4 to each well and read using a microplate ELISA reader set at 492 nm. IC50 values for compound inhibition were calculated directly from graphs of optical density (arbitrary units) versus compound concentration following subtraction of blank values."}, "VEGFR2 (KDR)": {"biological_target": "VEGFR2 (KDR) (Homo sapiens (Human), UniProt P35968)", "sequence (P35968 786-1356)": "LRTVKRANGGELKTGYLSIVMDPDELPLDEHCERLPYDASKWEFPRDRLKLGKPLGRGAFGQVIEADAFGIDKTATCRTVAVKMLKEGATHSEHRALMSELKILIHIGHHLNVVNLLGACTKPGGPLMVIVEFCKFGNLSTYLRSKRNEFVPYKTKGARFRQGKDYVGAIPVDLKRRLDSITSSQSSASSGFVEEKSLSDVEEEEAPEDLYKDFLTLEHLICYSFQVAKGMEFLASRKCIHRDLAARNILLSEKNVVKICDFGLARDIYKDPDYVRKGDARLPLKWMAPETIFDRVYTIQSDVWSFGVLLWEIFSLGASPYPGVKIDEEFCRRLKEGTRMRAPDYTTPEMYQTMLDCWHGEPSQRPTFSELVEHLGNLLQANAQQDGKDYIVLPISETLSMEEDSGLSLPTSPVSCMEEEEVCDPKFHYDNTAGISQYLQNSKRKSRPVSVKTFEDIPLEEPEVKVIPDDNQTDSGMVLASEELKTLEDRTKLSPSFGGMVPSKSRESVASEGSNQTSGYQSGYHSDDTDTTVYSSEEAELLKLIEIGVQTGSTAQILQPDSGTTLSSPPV", "experiment": "VEGFR2 Kinase Assay (biochemical KDR kinase assay, ELISA)", "settings": "purified cytoplasmic domain KDR protein, 2.7 μM ATP", "procedure": "Biochemical KDR kinase assays were performed in 96 well microtiter plates that were coated overnight with 75 μg/well of poly-Glu-Tyr (4:1) in 10 mM Phosphate Buffered Saline (PBS), pH 7.4. The coated plates were washed with 2 mls per well PBS+0.05% Tween-20 (PBS-T), blocked by incubation with PBS containing 1% BSA, then washed with 2 mls per well PBS-T prior to starting the reaction. Reactions were carried out in 100 μL reaction volumes containing 2.7 μM ATP in kinase buffer (50 mM Hepes buffer pH 7.4, 20 mM MgCl2, 0.1 mM MnCl2 and 0.2 mM Na3VO4). Test compounds were reconstituted in 100% DMSO and added to the reaction to give a final DMSO concentration of 5%. Reactions were initiated by the addition 20 ul per well of kinase buffer containing 200-300 ng purified cytoplasmic domain KDR protein (BPS Bioscience, San Diego, Calif.). Following a 15 minute incubation at 30° C., the reactions were washed 2 mls per well PBS-T. 100 μl of a monoclonal anti-phosphotyrosine antibody-peroxidase conjugate diluted 1:10,000 in PBS-T was added to the wells for 30 minutes. Following a 2 mis per well wash with PBS-Tween-20, 100 μl of O-Phenylenediamine Dihydrochloride in phosphate-citrate buffer, containing urea hydrogen peroxide, was added to the wells for 7-10 minutes as a colorimetric substrate for the peroxidase. The reaction was terminated by the addition of 100 μl of 2.5N H2SO4 to each well and read using a microplate ELISA reader set at 492 nm. IC50 values for compound inhibition were calculated directly from graphs of optical density (arbitrary units) versus compound concentration following subtraction of blank values."}}, "data": [{"molecule": "O=C(Nc1cccc(C(F)(F)F)c1)c1cccc(N2CCc3c(cnc4ccnn34)C2)c1", "note": "[Example 4, 3-(8,9-dihydropyrazolo[1,5-a]pyrido[3,4-e]pyrimidin-7(6H)-yl)-N-[3-(trifluoromethyl)phenyl] benzamide]", "values": [{"measurement": "IC50", "setting": "VEGFR2", "result": 70, "unit": "nM"}, {"measurement": "IC50", "setting": "PDGFRβ [1]", "result": 192, "unit": "nM"}, {"measurement": "IC50", "setting": "PDGFRβ [2]", "result": 27, "unit": "nM"}, {"measurement": "IC50", "setting": "VEGFR2 (KDR)", "result": 6, "unit": "nM"}]}, {"molecule": "CC(C)(C)OC(=O)Nc1cccc(N2CCc3c(cnc4ccnn34)C2)c1", "note": "[Example 8, tert-Butyl (3-(8,9-dihydropyrazolo[1,5-a]pyrido[3,4-e]pyrimidin-7(6H)-yl)phenyl)carbamate]", "values": [{"measurement": "IC50", "setting": "VEGFR2 (KDR)", "result": "> 10000", "unit": "nM"}]}, {"molecule": "CC(C)c1cccc(NC(=O)c2cccc(N3Cc4cnc5ccnn5c4C3)c2)c1", "note": "[Example 7, 3-(6,8-dihydro-7H-pyrazolo[1,5-a]pyrrolo[3,4-e]pyrimidin-7-yl)-N-(3-isopropylphenyl)benzamide]", "values": [{"measurement": "IC50", "setting": "VEGFR2 (KDR)", "result": "> 10000", "unit": "nM"}]}, {"molecule": "O=C(Nc1cccc(N2CCc3c(cnc4ccnn34)C2)c1)c1cccc(C(F)(F)F)c1", "note": "[Example 11, N-[3-(8,9-dihydropyrazolo[1,5-a]pyrido[3,4-e]pyrimidin-7(6H)-yl)phenyl]-3-(trifluoromethyl)benzamid]", "values": [{"measurement": "IC50", "setting": "PDGFRβ [2]", "result": 21, "unit": "nM"}, {"measurement": "IC50", "setting": "VEGFR2 (KDR)", "result": 6, "unit": "nM"}]}, {"molecule": "CC(C)c1cccc(NC(=O)c2cccc(N3CCc4c(cnc5ccnn45)C3)c2)c1", "note": "[Example 3, 3-(8,9-dihydropyrazolo[1,5-a]pyrido[3,4-e]pyrimidin-7(6H)-yl)-N-(3-isopropylphenyl)benzamide]", "values": [{"measurement": "IC50", "setting": "VEGFR2", "result": 26, "unit": "nM"}, {"measurement": "IC50", "setting": "PDGFRβ [2]", "result": 20, "unit": "nM"}, {"measurement": "IC50", "setting": "VEGFR2 (KDR)", "result": 8, "unit": "nM"}]}, {"molecule": "Cc1cccc(NC(=O)Nc2cccc(N3CCc4c(cnc5ccnn45)C3)c2)c1", "note": "[Example 12, 1-[3-(8,9-dihydropyrazolo[1,5-a]pyrido[3,4-e]pyrimidin-7(6H)-yl)phenyl]-3-(3-methylphenyl)urea]", "values": [{"measurement": "IC50", "setting": "PDGFRβ [2]", "result": 32, "unit": "nM"}, {"measurement": "IC50", "setting": "VEGFR2 (KDR)", "result": 27, "unit": "nM"}]}, {"molecule": "O=C(Nc1cccc(N2CCc3c(cnc4ccnn34)C2)c1)c1ccccc1", "note": "[Example 10, N-[3-(8,9-dihydropyrazolo[1,5-a]pyrido[3,4-e]pyrimidin-7(6H)-yl)phenyl]benzamide]", "values": [{"measurement": "IC50", "setting": "PDGFRβ [2]", "result": 202, "unit": "nM"}, {"measurement": "IC50", "setting": "VEGFR2 (KDR)", "result": 101, "unit": "nM"}]}]}
